Like-named read-outs stand apart in the source and are kept apart here.

For assay [1], the target named is T1, rat adrenergic α1B receptor (Rattus norvegicus, UniProt P15823).
T1 construct: from tissue; host or cells: Wistar rat liver
T1 sequence (P15823 1-515): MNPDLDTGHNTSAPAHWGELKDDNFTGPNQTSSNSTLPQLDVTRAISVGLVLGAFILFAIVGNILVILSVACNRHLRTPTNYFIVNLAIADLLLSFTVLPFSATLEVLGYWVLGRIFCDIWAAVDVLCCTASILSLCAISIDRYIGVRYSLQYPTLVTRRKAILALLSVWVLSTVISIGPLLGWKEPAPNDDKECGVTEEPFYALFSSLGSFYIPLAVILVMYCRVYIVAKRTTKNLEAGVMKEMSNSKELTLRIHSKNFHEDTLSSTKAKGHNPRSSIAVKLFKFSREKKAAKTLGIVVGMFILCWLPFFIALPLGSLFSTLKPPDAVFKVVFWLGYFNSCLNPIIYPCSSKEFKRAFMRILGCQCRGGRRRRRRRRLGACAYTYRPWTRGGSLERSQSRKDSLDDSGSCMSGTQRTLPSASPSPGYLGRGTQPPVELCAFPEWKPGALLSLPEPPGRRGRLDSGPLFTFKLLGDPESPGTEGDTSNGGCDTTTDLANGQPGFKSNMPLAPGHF
Description: Adrenergic α1B radioligand binding ([3H]Prozosin). Conditions: compound at 1 μM. How it is done: (§1) To evaluate in radioligand binding assays the activity of compounds of the invention, rat adrenergic α1B receptor obtained from Wistar Rat liver (Garcia-S'ainz, J. A. et al., Biochem. Biophys. Res. Commun. 186:760, 1992; Michel A. D. et al., Br. J. Pharmacol. 98:883, 1989) in a modified Tris-HCl buffer (50 mM Tris-HCl buffer, pH 7.4, 0.5 mM EDTA) was used. Compounds of the invention were incubated with 0.25 nM [^3H]Prozosin for 60 min. at 25° C. Non-specific binding was estimated in the presence of 10 μM phentolamine. Receptor proteins were filtered and washed, the filters were then counted to determine [^3H]Prozosin specifically bound. Compounds were screened at 1 μM or lower, using 1% DMSO as vehicle. Compounds of the invention were tested in this biochemical assay and percent inhibition of specific binding was determined.

Assay [2] has as its target T2, human recombinant serotonin (5-Hydroxytryptamine) 5-HT2B receptor (Homo sapiens, UniProt P41595).
T2 construct: expressed in transfected cells; host or cells: Chinese hamster ovary (CHO-K1) cells
Description: Serotonin 5-HT2B radioligand binding ([3H]LSD). The following applies: for inhibition at 0.1 µM: compound at 0.1 μM; for inhibition at 0.1 µM / inhibition at 1 µM: read-out: Inhibition of ligand binding, Serotonin 5-HT2B (percent inhibition of specific binding). How it is done:
Compounds of invention were incubated with 1.2 nM [^3H]Lysergic acid diethylamide (LSD) for 60 min. at 37° C. […] Receptor proteins were filtered and washed, the filters were then counted to determine [^3H]LSD specifically bound. Compounds were screened at 1 μM or lower, using 1% DMSO as vehicle. Compounds of the invention were tested in this biochemical assay and percent inhibition of specific binding was determined. Biochemical assay results are presented as the percent inhibition of specific binding in Table 10.

The target in assay [3] is T3, rat adrenergic α1A receptor (Rattus norvegicus, UniProt P43140).
T3 construct: from tissue; host or cells: Wistar rat submaxillary glands
T3 sequence (P43140 1-466): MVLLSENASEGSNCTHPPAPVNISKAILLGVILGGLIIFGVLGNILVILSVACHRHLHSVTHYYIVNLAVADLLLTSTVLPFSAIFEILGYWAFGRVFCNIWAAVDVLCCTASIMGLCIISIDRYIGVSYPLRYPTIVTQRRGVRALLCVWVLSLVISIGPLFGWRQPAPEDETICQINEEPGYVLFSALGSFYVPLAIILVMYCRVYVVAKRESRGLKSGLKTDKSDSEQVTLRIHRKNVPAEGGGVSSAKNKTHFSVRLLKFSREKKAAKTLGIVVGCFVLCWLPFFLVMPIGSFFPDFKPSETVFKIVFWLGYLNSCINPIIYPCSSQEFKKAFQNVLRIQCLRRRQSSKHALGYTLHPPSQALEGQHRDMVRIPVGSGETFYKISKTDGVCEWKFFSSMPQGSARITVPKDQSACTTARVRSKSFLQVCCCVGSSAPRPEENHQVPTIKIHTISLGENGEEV
Description: Adrenergic α1A radioligand binding ([3H]Prozosin). Conditions: compound at 1 μM. How it is done: as §1, with “rat adrenergic α1A receptor obtained” for “rat adrenergic α1B receptor obtained”, “Wistar Rat submaxillary glands (Michel, A. D.” for “Wistar Rat liver (Garcia-S'ainz, J. A. et al., Biochem. Biophys. Res. Commun. 186:760, 1992; Michel A. D.”, “bound. Compounds of the invention were screened” for “bound. Compounds were screened”

Assay [4] concerns the target T4, human recombinant serotonin (5-Hydroxytryptamine) 5-HT5A receptor (Homo sapiens, UniProt P47898).
T4 construct: expressed in transfected cells; host or cells: Chinese hamster ovary (CHO-K1) cells
Description: Serotonin 5-HT5A radioligand binding ([3H]LSD). How it is done:
Compounds of the invention are incubated with 1.7 nM [^3H]Lysergic acid diethylamide (LSD) for 60 min. at 37° C. […] Receptor proteins are filtered and washed, the filters are counted to determine [^3H]LSD specifically bound. Compounds are screened at 1 μM or lower, using 1% DMSO as vehicle. Compounds of the invention are tested in this biochemical assay and percent inhibition of specific binding is determined.

Where [5] appears, read: percent inhibition of specific binding, 1 µM.
Setting [6] is: percent inhibition of specific binding, read-out: Inhibition of ligand binding, Adrenergic α1B.
[7] abbreviates: percent inhibition of specific binding, read-out: Inhibition of ligand binding, Adrenergic α1A.
Setting [8] is: compound at 1 μM, read-out: Inhibition of ligand binding, Serotonin 5-HT5A (percent inhibition of specific binding).

T4 sequence (P47898 whole entry): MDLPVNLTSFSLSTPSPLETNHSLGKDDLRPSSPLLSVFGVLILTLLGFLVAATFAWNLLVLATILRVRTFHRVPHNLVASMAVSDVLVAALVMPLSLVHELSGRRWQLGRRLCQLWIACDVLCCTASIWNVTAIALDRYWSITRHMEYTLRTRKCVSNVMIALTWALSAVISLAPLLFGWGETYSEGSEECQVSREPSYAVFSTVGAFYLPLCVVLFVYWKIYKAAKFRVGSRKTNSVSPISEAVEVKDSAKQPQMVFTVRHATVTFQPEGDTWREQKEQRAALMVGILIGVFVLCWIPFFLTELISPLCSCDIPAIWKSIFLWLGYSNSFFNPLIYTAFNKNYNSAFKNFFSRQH
T2 sequence (P41595 whole entry): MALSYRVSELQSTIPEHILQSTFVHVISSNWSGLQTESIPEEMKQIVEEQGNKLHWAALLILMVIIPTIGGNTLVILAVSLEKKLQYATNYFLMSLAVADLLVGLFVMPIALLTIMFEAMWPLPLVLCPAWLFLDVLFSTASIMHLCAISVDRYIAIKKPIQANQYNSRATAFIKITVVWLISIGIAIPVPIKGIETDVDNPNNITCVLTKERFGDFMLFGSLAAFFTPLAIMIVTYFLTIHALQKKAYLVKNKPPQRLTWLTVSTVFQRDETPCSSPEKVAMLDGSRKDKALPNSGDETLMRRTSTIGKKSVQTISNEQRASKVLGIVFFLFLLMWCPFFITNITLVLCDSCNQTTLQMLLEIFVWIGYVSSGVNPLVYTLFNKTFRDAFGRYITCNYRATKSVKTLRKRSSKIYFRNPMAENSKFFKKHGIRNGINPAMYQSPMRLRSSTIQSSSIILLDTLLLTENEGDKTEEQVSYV

For `Cc1ccc(C(O)Cn2c3c(c4cc(C)ccc42)CN(C)CC3)cc1` (racemic) [Compound 43, racemic-2-(1,2,3,4-tetrahydro-2,8-dimethylpyrido[4,3-b]indol-5-yl)-1-p-tolylethanol], the “Inhibition of ligand binding, Adrenergic α1B” value in assay [1] (setting [5]) amounted to 96%. For the same molecule, the inhibition (commonly the change of the read-out against control, counted positive when it falls) at 1 µM was 97% in assay [1] (setting [6]), 70% in assay [2] (compound at 1 μM), 90% in assay [3] (setting [7]) and 61% in assay [4] (setting [8]). Also, the inhibition at 0.1 µM in assay [2] is -2%; in assay [4] (compound at 0.1 μM, read-out: Inhibition of ligand binding, Serotonin 5-HT5A (percent inhibition of specific binding)), 19%. Also, in assay [2] (compound at 1 μM, 1 µM), the “Inhibition of ligand binding, Serotonin 5-HT2B (percent inhibition of specific binding)” value is reported as 77%. Also, the “Inhibition of ligand binding, Adrenergic α1A” value in assay [3] (setting [5]) is recorded as 96%. Moreover, in assay [4] (compound at 1 μM, 1 µM), the “Inhibition of ligand binding, Serotonin 5-HT5A (percent inhibition of specific binding)” value was 73%.
Regarding `Cc1ccc(C(O)Cn2c3c(c4ccccc42)CN(C)CC3)cc1` (racemic) [Compound 53, racemic-2-(1,2,3,4-tetrahydro-2-methylpyrido[4,3-b]indol-5-yl)-1-p-tolylethanol], the inhibition at 1 µM in assay [1] (setting [6]) is 66%; in assay [2] (compound at 1 μM) it was 23%; in assay [3] (setting [7]), 74%; in assay [4] (setting [8]) it was 26%.
Taken in the same sequence, the figures for `C/C(=C\n1c2c(c3cc(Cl)ccc31)CN(C)CC2)c1ccc(F)cc1` [Compound 83, (E)-8-chloro-5-(2-(4-fluorophenyl)prop-1-enyl)-2,3,4,5-tetrahydro-2-methyl-1H-pyrido[4,3-b]indole] were 96%, 88%, 90% and 97%.
As for `CCN1CCc2c(c3ccccc3n2CC(O)c2ccc(C)cc2)C1` (racemic) [Compound 44, racemic-2-(2-ethyl-1,2,3,4-tetrahydropyrido[4,3-b]indol-5-yl)-1-p-tolylethanol], the inhibition at 1 µM in assay [1] (setting [6]) was determined as 38%; in assay [2] (compound at 1 μM) it was 11%; in assay [3] (setting [7]) it was 39%; in assay [4] (setting [8]), 0%.
As to `CCN1CCc2c(c3cc(C)ccc3n2CC(O)c2ccc(C)cc2)C1` (racemic) [Compound 51, racemic-2-(2-ethyl-1,2,3,4-tetrahydro-8-methylpyrido[4,3-b]indol-5-yl)-1-p-tolylethanol], the inhibition at 1 µM in assay [1] (setting [6]) came out at 95%; in assay [2] (compound at 1 μM) it was 32%; in assay [3] (setting [7]), 86%; in assay [4] (setting [8]), 27%. Moreover, the inhibition at 0.1 µM in assay [2] stood at 12%.
`Cc1ccc2c(c1)c1c(n2CC#Cc2ccccn2)CCN(C)C1` [Compound No. 500, 2,3,4,5-tetrahydro-2,8-dimethyl-5-(3-(pyridin-2-yl)prop-2-ynyl)-1H-pyrido[4,3-b]indole]: the inhibition at 1 µM in assay [1] (read-out: Inhibition of ligand binding, Adrenergic α1B (percent inhibition of specific binding)) is 27%; in assay [2] (compound at 1 μM) it was 34%; in assay [3] (read-out: Inhibition of ligand binding, Adrenergic α1A (percent inhibition of specific binding)), 27%; in assay [4] (setting [8]), 23%.

These data come from patent US8906925B2, “Pyrido[4,3-B]indoles containing rigid moieties” (Medivation Technologies, Inc., priority 2008, dated 2014).
